Source: patent publication US7109216B2 (priority 2001, dated 2006)
pKi: −log10 of the molar value. Like-named read-outs stand apart in the source and are kept apart here.

Experiments:
[1] = biological target: T1, human cannabinoid CB1 receptor (Homo sapiens, UniProt P21554); experiment: Cannabinoid CB1 antagonistic activity, forskolin-induced cAMP accumulation in CHO cells; type: cell-based; set-up: expressed in transfected cells; host or cells: CHO cells
Experimental: The cannabinoid CB1 antagonistic activity of compounds of the invention was determined by functional studies using CHO cells in which human cannabinoid CB1 receptors were stably expressed. Adenylyl cyclase was stimulated using forskolin and measured by quantifying the amount of accumulated cyclic AMP. Concomitant activation of CB1 receptors by CB1 receptor agonists (e.g. CP-55,940 or (R)-WIN-55,212–2) can attenuate the forskolin-induced accumulation of cAMP in a concentration-dependent manner. This CB1 receptor-mediated response can be antagonized by CB1 receptor antagonists such as the compounds of the invention.

[2] = biological target: T1, human cannabinoid CB1 receptor; experiment: biochemical; type: binding; set-up: expressed in transfected cells; host or cells: Chinese hamster ovary (CHO) cells, membrane preparation; settings: [3H]CP-55,940 radioligand, CHO cell membranes stably transfected with human CB1; for pKi: hCB1 pKi; for Ki: read-out: hCB1 pKi (converted)
Experimental: After incubation of a freshly prepared cell membrane preparation with the [^3H]-ligand, with or without addition of compounds of the invention, separation of bound and free ligand was performed by filtration over glassfiber filters. Radioactivity on the filter was measured by liquid scintillation counting.

[3] = antagonism of CB1 agonist (e.g. CP-55,940 or (R)-WIN-55,212-2) effect on forskolin-induced cAMP accumulation, CHO cells expressing human CB1, read-out: hCB1 pA2 (converted)

T1 sequence (P21554 whole entry): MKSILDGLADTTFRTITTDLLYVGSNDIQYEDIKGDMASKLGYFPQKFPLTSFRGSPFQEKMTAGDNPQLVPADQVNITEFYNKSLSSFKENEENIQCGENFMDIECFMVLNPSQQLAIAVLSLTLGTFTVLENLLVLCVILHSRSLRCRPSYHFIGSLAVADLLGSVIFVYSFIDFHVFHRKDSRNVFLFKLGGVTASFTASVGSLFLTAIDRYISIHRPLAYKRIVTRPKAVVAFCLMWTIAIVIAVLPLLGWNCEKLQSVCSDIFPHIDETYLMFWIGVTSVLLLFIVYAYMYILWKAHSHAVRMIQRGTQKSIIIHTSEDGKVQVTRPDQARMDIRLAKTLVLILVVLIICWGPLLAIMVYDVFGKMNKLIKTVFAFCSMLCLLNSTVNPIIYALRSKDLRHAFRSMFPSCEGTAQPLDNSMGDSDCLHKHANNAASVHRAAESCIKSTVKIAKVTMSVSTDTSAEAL

Row | SMILES | pKi [2] | Kb [1, 3] [nM] | melting point [°C] | other results
1 | O=C(NN1CCCCC1)c1cn(-c2ccc(Cl)cc2)c(-c2ccc(Cl)cc2Cl)n1 [Example 1, 1-(4-chlorophenyl)-2-(2,4-dichlorophenyl)-N-(piperidin-1-yl)-1H-imidazole-4-carboxamide] | 7.90 | – | – | hCB1 pA2 ([1]; antagonism of CB1 agonist (e.g. CP-55,940 or (R)-WIN-55,212-2) effect on forskolin-induced cAMP accumulation, CHO cells expressing human CB1): 8.2
2 | O=C(NN1CCCC1)c1cn(-c2ccc(Cl)cc2)c(-c2ccc(Cl)cc2Cl)n1 [Example 2, 1-(4-Chlorophenyl)-2-(2,4-dichlorophenyl)-N-(pyrrolidin-1-yl)-1H-imidazole-4-carboxamide] | 7.00 | 25.1 | – | –
3 | CC(C)(C)ONC(=O)c1cn(-c2ccc(Cl)cc2)c(-c2ccc(Cl)cc2Cl)n1 [Example 3, N-(t-Butoxy)-1-(4-chlorophenyl)-2-(2,4-dichlorophenyl)-1H-imidazole-4-carboxamide] | – | – | – | Kb [1]: 31.6 nM; Ki [2]: 158 nM
4 | O=C(NC1CCCCC1)c1cn(-c2ccc(Cl)cc2)c(-c2ccc(Cl)cc2Cl)n1 [Example 5, 1-(4-Chlorophenyl)-N-cyclohexyl-2-(2,4-dichlorophenyl)-1H-imidazole-4-carboxamide] | 7.10 | 7.94 | – | –
5 | CN(Cc1ccccc1)C(=O)c1cn(-c2ccc(Cl)cc2)c(-c2ccc(Cl)cc2Cl)n1 [Example 6, N-(Benzyl)-1-(4-chlorophenyl)-2-(2,4-dichlorophenyl)-N-methyl-1H-imidazole-4-carboxamide] | 7.20 | 50.1 | – | –
6 | Cc1c(C(=O)NN2CCCCC2)nc(-c2ccc(Cl)cc2)n1-c1ccc(Cl)cc1Cl [Example 10, 2-(4-chlorophenyl)-1-(2,4-dichlorophenyl)-5-methyl-N-(piperidin-1-yl)-1H-imidazole-4-carboxamide] | 6.50 | 7.94 | – | –
7 | Cc1c(C(=O)NN2CCCCC2)nc(-c2ccc(Cl)cc2Cl)n1-c1ccc(Cl)cc1 [Example 12, 1-(4-Chlorophenyl)-2-(2,4-dichlorophenyl)-5-methyl-N-(piperidin-1-yl)-1H-imidazole-4-carboxamide] | 7.90 | 1.26 | – | –
8 | Cc1c(C(=O)NOC(C)(C)C)nc(-c2ccc(Cl)cc2Cl)n1-c1ccc(Cl)cc1 [Example 13, N-(t-Butoxy)-2-(2,4-dichlorophenyl)-1-(4-chlorophenyl)-5-methyl-1H-imidazole-4-carboxamide] | 7.10 | 3.16 | – | –
9 | CCc1c(C(=O)NOC(C)(C)C)nc(-c2ccc(Cl)cc2Cl)n1-c1ccc(Cl)cc1 [Example 14, N-(t-Butoxy)-1-(4-chlorophenyl)-2-(2,4-dichlorophenyl)-5-ethyl-1H-imidazole-4-carboxamide] | 7.00 | 0.126 | – | –
10 | CCc1c(C(=O)NN2CCCCC2)nc(-c2ccc(Cl)cc2Cl)n1-c1ccc(Cl)cc1 [Example 15, 1-(4-Chlorophenyl)-2-(2,4-dichlorophenyl)-5-ethyl-N-(piperidin-1-yl)-1H-imidazole-4-carboxamide] | 8.00 | 0.501 | – | –
11 | Cc1c(C(=O)NOC(C)(C)C)nc(-c2ccc(Cl)cc2Cl)n1-c1ccc(Br)cc1 [Example 16, 1-(4-Bromophenyl)-N-(t-butoxy)-2-(2,4-dichlorophenyl)-5-methyl-1H-imidazole-4-carboxamide] | – | – | – | Kb [1]: 15.8 nM
12 | CCCCCNC(=O)c1nc(-c2ccc(Cl)cc2Cl)n(-c2ccc(Br)cc2)c1CC [Example 21, 1-(4-Bromophenyl)-2-(2,4-dichlorophenyl)-5-ethyl-N-(n-pentyl)-1H-imidazole-4-carboxamide] | 7.50 | < 1 | – | –
13 | O=C(NN1CCCCC1)c1cn(-c2ccc(Br)cc2)c(-c2ccc(Cl)cc2Cl)n1 [Example 22, 1-(4-bromophenyl)-2-(2,4-dichlorophenyl)-N-(piperidin-1-yl)-1H-imidazole-4-carboxamide] | – | – | – | Kb [1]: 10 nM; Ki [2]: 398 nM
14 | CC(C)(C)ONC(=O)c1cn(-c2ccc(Br)cc2)c(-c2ccc(Cl)cc2Cl)n1 [Example 23, N-(t-Butoxy)-1-(4-bromophenyl)-2-(2,4-dichlorophenyl)-1H-imidazole-4-carboxamide] | – | – | – | Kb [1]: 1 nM; Ki [2]: 398 nM
15 | O=C(NN1CC2CCCC2C1)c1cn(-c2ccc(Cl)cc2)c(-c2ccc(Cl)cc2Cl)n1 (centres unmarked) [Example 26, 1-(4-Chlorophenyl)-2-(2,4-dichlorophenyl)-N-(hexahydrocyclopenta[c]pyrrol-2(1H)-yl)-1H-imidazole-4-carboxamide] | 6.30 | 10 | – | –
16 | O=C(NCc1ccc(F)cc1)c1cn(-c2ccc(Cl)cc2)c(-c2ccc(Cl)cc2Cl)n1 [Example 27, 1-(4-Chlorophenyl)-2-(2,4-dichlorophenyl)-N-(4-fluorobenzyl)-1H-imidazole-4-carboxamide] | 7.20 | 3.98 | – | –
17 | Cc1c(C(=O)NN2CCCCC2)nc(-c2ccc(Cl)cc2Cl)n1-c1ccc(C(F)(F)F)cc1 [Example 45, 2-(2,4-dichlorophenyl)-5-methyl-N-(piperidin-1-yl)-1-(4-(trifluoromethyl)phenyl)-1H-imidazole-4-carboxamide] | 7.80 | 1.58 | – | –
18 | Cc1c(C(=O)NN2CCOCC2)nc(-c2ccc(Cl)cc2Cl)n1-c1ccc(Cl)cn1 [Example 52, 1-(5-Chloropyridin-2-yl)-2-(2,4-dichlorophenyl)-5-methyl-N-(4-morpholinyl)-1H-imidazole-4-carboxamide] | – | – | – | Kb [1]: 2.51 nM; Ki [2]: 501 nM
19 | Cc1c(C(=O)NCCF)nc(-c2ccc(Cl)cc2Cl)n1-c1ccc(Cl)cc1 [Example 85, 1-(4-Chlorophenyl)-2-(2,4-dichlorophenyl)-N-(2-fluoroethyl)-5-methyl-1H-imidazole-4-carboxamide] | 7.60 | – | 128 to 133 | –
20 | Cc1c(C(=O)NCc2ccc(F)cc2)nc(-c2ccc(Cl)cc2Cl)n1-c1ccc(Cl)cc1 [Example 90, 1-(4-Chlorophenyl)-2-(2,4-dichlorophenyl)-N-(4-fluorobenzyl)-5-methyl-1H-imidazole-4-carboxamide] | 8.00 | – | 165 to 166 | –
21 | Cc1c(C(=O)NN2CCCCC2)nc(-c2cc(Cl)ccc2Cl)n1-c1ccccc1 [Example 95, 2-(2,5-Dichlorophenyl)-5-methyl-1-phenyl-N-(piperidin-1-yl)-1H-imidazole-4-carboxamide] | 7.20 | – | 227 | –
22 | Cc1c(C(=O)NC2CCCCC2)nc(-c2cc(Cl)ccc2Cl)n1-c1ccccc1 [Example 96, N-Cyclohexyl-2-(2,5-dichlorophenyl)-5-methyl-1-phenyl-1H-imidazole-4-carboxamide] | 8.20 | – | 236 | –
23 | Cc1c(C(=O)Nc2cccc(C(F)(F)F)c2)nc(-c2ccc(Cl)cc2Cl)n1-c1ccc(Cl)cc1 [Example 104, 1-(4-Chlorophenyl)-2-(2,4-dichlorophenyl)-5-methyl-N-(3-(trifluoromethyl)phenyl)-1H-imidazole-4-carboxamide] | 8.20 | – | 177 | –
24 | Cc1c(C(=O)NCc2cccc(C(F)(F)F)c2)nc(-c2ccc(Cl)cc2Cl)n1-c1ccc(Cl)cc1 [Example 105, 1-(4-Chlorophenyl)-2-(2,4-dichlorophenyl)-5-methyl-N-(3-(trifluoromethyl)benzyl)-1H-imidazole-4-carboxamide] | 7.50 | – | 138 to 140 | –
25 | O=C(NN1CCCCC1)c1nc(-c2ccc(Cl)cc2Cl)n(-c2ccc(Br)cc2)c1Cl [Example 109, 1-(4-bromophenyl)-5-chloro-2-(2,4-dichloro-phenyl)-N-(piperidin-1-yl)-1H-imidazole-4-carboxamide] | 6.60 | 1.58 | – | –
26 | O=C(NC1CCCCC1)c1nc(-c2ccc(Cl)cc2Cl)n(-c2ccc(Cl)cc2)c1I [Example 112, 1-(4-Chlorophenyl)-N-cyclohexyl-2-(2,4-dichlorophenyl)-5-iodo-1H-imidazole-4-carboxamide] | 8.20 | – | 226 to 230 | –
27 | N#Cc1c(C(=O)NC2CCCCC2)nc(-c2ccc(Cl)cc2Cl)n1-c1ccc(Cl)cc1 [Example 113, 1-(4-Chlorophenyl)-5-cyano-N-cyclohexyl-2-(2,4-dichlorophenyl)-1H-imidazole-4-carboxamide] | 7.80 | – | 157 to 158 | –
28 | O=C(NN1CCCCC1)c1nc(-c2ccc(Cl)cc2Cl)n(-c2ccc(Cl)cc2)c1CF [Example 114, 1-(4-chlorophenyl)-2-(2,4-dichlorophenyl)-5-fluoromethyl-N-(piperidin-1-yl)-1H-imidazole-4-carboxamide] | 7.20 | – | 162 to 163 | –
29 | O=C(NN1CCCCC1)c1nc(-c2ccc(Cl)cc2Cl)n(-c2ccc(Cl)cc2)c1CO [Example 115, 1-(4-chlorophenyl)-2-(2,4-dichlorophenyl)-5-hydroxymethyl-N-(piperidin-1-yl)-1H-imidazole-4-carboxamide] | 7.50 | – | 212 to 214 | –
30 | CCc1c(C(=O)NN2CCCCC2)nc(-c2ccccc2Cl)n1-c1ccc(Cl)cn1 [Example 116, 1-(5-chloropyrid-2-yl)-2-(2-chlorophenyl)-5-ethyl-N-(piperidin-1-yl)-1H-imidazole-4-carboxamide] | 7.90 | – | 217 to 219 | –
